Series [1] is described as follows: LA gelation studies. In kind it is physicochemical. The conditions noted are these: drug solution in NMP; e-beam irradiated; 60° C., 150 rpm, up to 16 days. The procedure: Drug solutions were prepared as described above and filled into syringes or glass vials. Syringes were untreated, contained various amounts of silicone, or were plasma coated for lubrication. Samples were irradiated by e-beam irradiation at not less than 25 kGy and stored at accelerated conditions of 60° C. with agitation at 150 rpm for up to 16 days. Samples were inspected periodically to determine if the drug solution remained a solution or had formed a solid/gel by an inversion test. Samples that had “gelled” were transferred to 5° C. for subsequent testing. The gelation rate for each sample was calculated as Rate=1/(simulated 5° C. age at time of gelation in days). The Arrhenius equation was used to determine the simulated age, assuming standard reaction rate doubling for every 10° C. increase in temperature. […] Data was analyzed using JMP. […] Container type and lubrication were not significant. Samples were tested for leuprolide content by HPLC. Leuprolide content was then converted to leuprolide acetate by multiplying by 1.078 (based on molecular mass ratios). A marked difference in leuprolide acetate content between the gelled and non-gelled samples was seen, with the tipping point between solution and solid/gelled samples occurring at about 45% LA.

The format of series [2] is physicochemical. The text has this:
To produce the drug/solvent bulk solution comprising the API (LA), the desired amount of the LA was combined with the solvent N-methyl-2-pyrrolidone (NMP), in the indicated amounts (see individual experiments below). The API and solvent were combined in a glass vial or jar. Jars were mixed using the jar mill, Turbula, or shaker at room temperature until homogeneous. LA is soluble in NMP and can load higher concentrations (at least 40% w/w). After dissolving the API in the organic solvent, the bulk solution was manually filled into syringes and capped with a tip cap. The syringes used for filling were either 1.2 mL male polypropylene syringes, 1.2 mL male cyclic olefin copolymer syringes or 1 mL male cyclic olefin copolymer syringes. In some instances, the two syringes were coupled via the connector prior to packaging. Filled syringes were then packaged in labeled foil pouches or a plastic tray pack with foil lid with a Syringe A (polymer-solvent solution) and a desiccant pack and the pouches were sealed. After filling the syringes with the formulations, they were terminally sterilized with an external radiation dose of more than 15 kGy and less than 60 kGy from irradiation processing (E-beam, Gamma or X-ray). After terminal sterilization, the syringes were stored under refrigerated conditions (e.g., 2-8° C.) or accelerated conditions (>25° C. see individual experiments).

On to `CCNC(=O)[C@@H]1CCCN1C(=O)[C@H](CCCNC(=N)N)NC(=O)[C@H](CC(C)C)NC(=O)[C@@H](CC(C)C)NC(=O)[C@H](Cc1ccc(O)cc1)NC(=O)[C@H](CO)NC(=O)[C@H](Cc1c[nH]c2ccccc12)NC(=O)[C@H](Cc1c[nH]cn1)NC(=O)[C@@H]1CCC(=O)N1` [LA, leuprolide acetate], for which the “tipping point between solution and solid/gelled samples” value in series [1] was “about 45 % LA”. The “solubility / loading in NMP” value in series [2] is on record as “at least 40 % w/w”.

The record behind these values is patent US20260048205A1, “SYSTEMS AND METHODS FOR MIXING SYRINGE VALVE ASSEMBLIES AND SYRINGE FORMULATIONS” (Tolmar International Limited, priority 2024, published 2026).
